How the values were obtained:
[1] = biological target: T1, rat mGluR1a (Rattus norvegicus, UniProt P23385); assay: Calcium mobilization; type: cell-based; settings: fixed 1 µM compound, 10 min pre-incubation
[2] = biological target: mGluR1a (Rattus norvegicus, UniProt P23385); assay: ERK1/2 phosphorylation assay; settings: for P-ERK1/2 response as % of the response to a maximal concentration of glutamate: 1 µM PAM, no exogenously added agonist
[3] = biological target: T1, rat mGluR1a; settings: 500 nM compound, absence of glutamate
[4] = biological target: T2, rat mGlu1a receptor (Rattus norvegicus, UniProt P23385); settings: saturation binding, BHK-mGluR1a membranes
T2 sequence (P23385 19-1199): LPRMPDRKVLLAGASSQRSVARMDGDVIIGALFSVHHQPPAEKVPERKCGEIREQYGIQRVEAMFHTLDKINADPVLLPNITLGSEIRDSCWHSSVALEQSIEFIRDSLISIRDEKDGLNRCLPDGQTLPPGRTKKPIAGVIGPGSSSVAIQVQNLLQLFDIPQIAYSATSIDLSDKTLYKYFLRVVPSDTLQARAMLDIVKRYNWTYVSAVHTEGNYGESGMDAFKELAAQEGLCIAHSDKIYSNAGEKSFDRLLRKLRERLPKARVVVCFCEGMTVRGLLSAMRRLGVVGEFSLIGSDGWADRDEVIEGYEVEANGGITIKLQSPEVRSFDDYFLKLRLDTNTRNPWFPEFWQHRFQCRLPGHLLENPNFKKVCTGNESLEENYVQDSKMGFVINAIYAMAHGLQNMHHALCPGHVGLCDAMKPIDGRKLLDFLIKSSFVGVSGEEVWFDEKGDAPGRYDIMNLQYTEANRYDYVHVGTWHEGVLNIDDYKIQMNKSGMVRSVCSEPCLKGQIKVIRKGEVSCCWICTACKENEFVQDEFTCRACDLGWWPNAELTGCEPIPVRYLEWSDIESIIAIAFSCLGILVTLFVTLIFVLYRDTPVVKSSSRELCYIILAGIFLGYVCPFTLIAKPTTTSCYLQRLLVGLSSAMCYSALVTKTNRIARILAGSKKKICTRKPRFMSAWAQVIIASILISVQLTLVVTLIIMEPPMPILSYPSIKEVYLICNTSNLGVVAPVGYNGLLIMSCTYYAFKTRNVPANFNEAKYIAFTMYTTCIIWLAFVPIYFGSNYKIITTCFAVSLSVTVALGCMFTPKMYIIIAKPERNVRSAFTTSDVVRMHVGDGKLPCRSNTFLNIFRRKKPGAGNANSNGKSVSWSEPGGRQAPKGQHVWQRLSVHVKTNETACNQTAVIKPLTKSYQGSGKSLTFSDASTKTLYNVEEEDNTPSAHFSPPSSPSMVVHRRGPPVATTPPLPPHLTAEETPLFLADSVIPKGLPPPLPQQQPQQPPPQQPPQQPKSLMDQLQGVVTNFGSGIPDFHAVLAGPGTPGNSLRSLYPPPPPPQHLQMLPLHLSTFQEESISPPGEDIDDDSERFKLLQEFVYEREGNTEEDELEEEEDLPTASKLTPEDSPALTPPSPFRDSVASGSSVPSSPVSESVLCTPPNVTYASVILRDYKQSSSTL

[5] = biological target: T2, rat mGlu1a receptor; assay: biochemical

Sequence of mGluR1a (P23385 19-1199): as above
T1 sequence (P23385 19-1199): as above

leftward shift of the glutamate concentration-response curve (calcium) [1]	EC50 [2] [nM]	P-ERK1/2 response as % of the response to a maximal concentration of glutamate [2] [%]	increase of basal cAMP accumulation [3]	Bmax [4]	Kd [5] [nM]	SMILES	effect on basal ERK1/2 phosphorylation ([2]; antagonist alone (100 nM R214127 or 10 µM LY341495))
~15 fold	9.2 ± 6.2	114.4 ± 29.0	30%			CCCCOC(=O)NC(=O)C1c2ccccc2Oc2ccccc21 [Ro 67-4853, butyl (9H-xanthene-9-carbonyl)carbamate]	
				3817 ± 226 fmol/mg of protein	2.8 ± 0.3	O=C(Cc1ccccc1)c1ccc2nc3c(cc2c1)CCCO3 [R214127, 1-(3,4-dihydro-2H-pyrano[2,3-b]quinolin-7-yl)-2-phenyl-1-ethanone]	does not effect basal ERK1/2 phosphorylation
approximately 2 fold		119.5 ± 17.3	approximately 7%			CCOC(=O)NC(=O)C(c1ccccc1)c1ccccc1 [Ro 01-6128, ethyl diphenylacetylcarbamate]	
~4.5 fold	163 ± 44.8	120.4 ± 1.9	8%			Cc1ccc(S(=O)(=O)N2CCC[C@H]2c2ccc(F)cc2)cc1 (racemic) [Ro 67-7476, (S)-2-(4-fluorophenyl)-1-(toluene-4-sulfonyl)pyrrolidine]	

From publication PMC2600811 (Neuropharmacology, 2008)
